# From ChEMBL document CHEMBL3769303, “Discovery of membrane active benzimidazole quinolones-based topoisomerase inhibitors as potential DNA-binding antimicrobial agents” (Eur J Med Chem, 2016)
# Active and inactive are the calls of the source. No cut-off for these calls is given here.
# Key:
# [1] = system: Saccharomyces cerevisiae; test: Antifungal activity against Saccharomyces cerevisiae ATCC 9763 after 24 hrs by micro broth dilution method; type: functional; conditions: ATCC 9763, 24 h
# [2] = system: Aspergillus flavus; test: Antifungal activity against Aspergillus flavus ATCC 204304 after 24 hrs by micro broth dilution method; type: functional; conditions: ATCC 204304, 24 h
# [3] = system: Staphylococcus aureus; test: Antibacterial activity against methicillin-resistant Staphylococcus aureus N315 by micro broth dilution method; type: functional
# [4] = system: Salmonella enterica; test: Antibacterial activity against Salmonella enterica ATCC 14028 by micro broth dilution method; type: functional
# [5] = system: Candida albicans; test: Antifungal activity against Candida albicans ATCC 10231 after 24 hrs by micro broth dilution method; type: functional; conditions: ATCC 10231, 24 h
# [6] = Antifungal activity against Candida mycoderma ATCC 9888 after 24 hrs by micro broth dilution method; type: functional; conditions: Candida vini
# [7] = system: Staphylococcus aureus; test: Antibacterial activity against Staphylococcus aureus ATCC 25923 by micro broth dilution method; type: functional
# [8] = system: Shigella dysenteriae; test: Antibacterial activity against Shigella dysenteriae by micro broth dilution method; type: functional
# [9] = system: Micrococcus luteus; test: Antibacterial activity against Micrococcus luteus ATCC 4698 by micro broth dilution method; type: functional; conditions: NCTC 2665
# [10] = system: Pseudomonas aeruginosa; test: Antibacterial activity against Pseudomonas aeruginosa ATCC 27853 by micro broth dilution method; type: functional
# [11] = system: Escherichia coli; test: Antibacterial activity against Escherichia coli JM109 by micro broth dilution method; type: functional
# [12] = system: Bacillus spizizenii; test: Antibacterial activity against Bacillus subtilis ATCC 6633 by micro broth dilution method; type: functional
# [13] = system: Cyberlindnera jadinii; test: Antifungal activity against Candida utilis ATCC 9950 after 24 hrs by micro broth dilution method; type: functional; conditions: Williopsis jadinii, ATCC 9950, 24 h
# [14] = system: Escherichia coli; test: Antibacterial activity against Escherichia coli DH52 by micro broth dilution method; type: functional
# [15] = Antibacterial activity against Bacillus proteus ATCC 13315 by micro broth dilution method; type: functional
# [16] = system: Staphylococcus aureus; test: Antibacterial activity against methicillin-resistant Staphylococcus aureus N315 at MIC measured after 6 passages; type: functional, organism-based
# [17] = system: Calf thymus DNA; test: Binding affinity to calf thymus DNA by UV-visible spectroscopy; type: nucleic-acid assay; conditions: Bos taurus
Structure (SMILES),MIC80 [1] [µg/mL],MIC80 [2] [µg/mL],MIC [3] [µg/mL],MIC [4] [µg/mL],MIC80 [5] [µg/mL],MIC80 [6] [µg/mL],MIC [7] [µg/mL],MIC [8] [µg/mL],MIC [9] [µg/mL],MIC [10] [µg/mL],MIC [11] [µg/mL],MIC [12] [µg/mL],MIC80 [13] [µg/mL],MIC [14] [µg/mL],MIC [15] [µg/mL],Activity [16],Activity [17]
CCCn1c(CN2CCN(c3cc4c(cc3F)c(=O)c(C(=O)O)cn4C3CC3)CC2)nc2ccccc21,0.5,0.5,2,4,0.25,0.5,32,4,1,1,4,32,0.5,1,32,,
CCn1cc(C(=O)O)c(=O)c2cc(F)c(N3CCN(Cc4nc5ccccc5n4Cc4ccc([N+](=O)[O-])cc4)CC3)cc21,4,8,8,4,4,16,4,4,4,4,8,2,4,16,16,,
CCn1cc(C(=O)O)c(=O)c2cc(F)c(N3CCN(Cc4nc5ccc(F)cc5[nH]4)CC3)cc21,0.5,0.5,16,8,2,1,16,8,0.5,4,32,8,0.25,16,2,,
CCn1cc(C(=O)O)c(=O)c2cc(F)c(N3CCN(Cc4nc5ccccc5n4Cc4ccc(Cl)cc4Cl)CC3)cc21,2,1,0.125,0.25,0.5,1,4,2,0.25,1,4,8,0.5,1,1,,
CCn1cc(C(=O)O)c(=O)c2cc(F)c(N3CCN(Cc4nc5ccccc5[nH]4)CC3)cc21,0.5,0.5,1,0.5,0.5,1,2,2,1,1,4,1,0.5,0.5,0.5,,
O=C(O)c1cn(C2CC2)c2cc(N3CCN(Cc4nc5ccccc5n4Cc4cccc(Cl)c4)CC3)c(F)cc2c1=O,0.5,0.5,0.5,0.25,0.125,0.5,8,4,0.125,0.125,4,4,0.25,0.5,0.5,,
CCCCCCn1c(CN2CCN(c3cc4c(cc3F)c(=O)c(C(=O)O)cn4CC)CC2)nc2ccccc21,128,128,32,8,16,8,256,32,4,16,64,16,32,4,4,,
O=C(O)c1cn(C2CC2)c2cc(N3CCN(Cc4nc5ccccc5n4Cc4ccccc4F)CC3)c(F)cc2c1=O,32,16,0.25,0.25,32,16,16,4,0.25,2,2,8,8,1,1,,
CCn1cc(C(=O)O)c(=O)c2cc(F)c(N3CCNCC3)cc21 [NORFLOXACIN],,,8,4,,,2,16,2,16,1,4,,1,8,inactive,Active
CCCCCCCCCCCCCCCCCCn1c(CN2CCN(c3cc4c(cc3F)c(=O)c(C(=O)O)cn4CC)CC2)nc2ccccc21,128,64,128,256,128,64,256,256,128,256,256,128,64,256,256,,
CCCCCCCCCCCCn1c(CN2CCN(c3cc4c(cc3F)c(=O)c(C(=O)O)cn4C3CC3)CC2)nc2ccccc21,8,4,64,16,64,4,32,2,4,4,16,4,32,8,4,,
O=C(O)c1cn(C2CC2)c2cc(N3CCN(Cc4nc5ccccc5n4Cc4ccc([N+](=O)[O-])cc4)CC3)c(F)cc2c1=O,1,1,2,16,2,4,4,8,8,4,8,4,2,16,8,,
CCn1c(CN2CCN(c3cc4c(cc3F)c(=O)c(C(=O)O)cn4C3CC3)CC2)nc2ccccc21,128,4,128,0.5,2,2,256,8,2,2,128,0.5,2,2,0.5,,
